Measurements as given in patent publication US7223770B2, “Tocopherol-modified therapeutic drug compounds” (priority 2003, dated 2007).
Structures can show the parent of a compound that is named as a salt. Where two headings read alike, the source gives them in different places. Marks after values point to notes of the source that are not given here.

How the values were obtained:
OVCAR-3 (ovarian) [1] = conditions: value reported by NCI; cited from earlier work
[2] = test system: NCI-H460 (non-small cell lung); conditions: NCI-H460 (NSCLC); value reported by NCI; cited from earlier work
HT-29 (colorectal) [3] = conditions: HT29 (COLON); value reported by NCI; cited from earlier work
HCT-116 (colorectal) [4] = conditions: HCT-116 (COLON); value reported by NCI; cited from earlier work
MCF-7 (breast) [5] = conditions: value reported by NCI; cited from earlier work
HCT-15 (colorectal) [6] = conditions: HCT-15 (COLON); value reported by NCI; cited from earlier work
[7] = rats, intravenous; literature value; cited from earlier work
HT-29 human tumor cells = experiment: HT-29 Human Tumor Xenograft anti-tumor activity; format: in vivo, Athymic mice; conditions: for Number of animals with no measurable tumor on Day 55 / Tumor Growth Delay (T − C) / Tumor Growth Inhibition (% T/C) / Tumors that had still not reached maximum pre-determined size: 15 mg/kg intravenous; for Tumor Growth Inhibition (% T/C): at Day 55; for Median tumor size / Mice with no measurable tumor: fifty-five days after dose initiation
Protocol: HT-29 Human Tumor Xenograft. Athymic mice were subcutaneously implanted with 30–40 mg tumor fragments using 12-gauge trocar needles. A sufficient number of mice were implanted with fragments so tumors in narrow weight range (100–200 mg) were selected for the trial on staging day (SD). The animals selected with tumors in the proper size range were randomized into six groups of 10 animals and intravenously administered the following test compounds:
The tumor measurements were performed using a caliper (millimeters); the tumor volume was calculated based on the formula: (Length×width^2)/2=Volume (mm^3).

MCF-7 (breast) [8] = experiment: In vitro cytotoxicity GI50, ALAMAR BLUE, 48 hours; format: cell-based; conditions: emulsion formulation diluted in cell media
Protocol: (§1) The cells were in contact with varying concentrations of the test article for a period of 48 hours. At the end of 48 hours, staining with ALAMAR BLUE was performed to determine the number of viable cells and calculate the degree of cellular growth inhibition as compared to a control group.

HCT-116 (colorectal) [9] = experiment: In vitro cytotoxicity GI50, ALAMAR BLUE, 48 hours; format: cell-based; conditions: HCT-116 (COLON), emulsion formulation diluted in cell media
Protocol: as §1

HCT-15 (colorectal) [10] = experiment: In vitro cytotoxicity GI50, ALAMAR BLUE, 48 hours; format: cell-based; conditions: HCT-15 (COLON), emulsion formulation diluted in cell media
Protocol: as §1

OVCAR-3 (ovarian) [11] = experiment: In vitro cytotoxicity GI50, ALAMAR BLUE, 48 hours; format: cell-based; conditions: emulsion formulation diluted in cell media
Protocol: as §1

[12] = test system: NCI-H460 (non-small cell lung); experiment: In vitro cytotoxicity GI50, ALAMAR BLUE, 48 hours; format: cell-based, human; conditions: NCI-H460 (NSCLC), emulsion formulation diluted in cell media
Protocol: as §1

HT-29 (colorectal) [13] = experiment: In vitro cytotoxicity GI50, ALAMAR BLUE, 48 hours; format: cell-based, human; conditions: HT29 (COLON), emulsion formulation diluted in cell media
Protocol: as §1

[14] = format: physicochemical; conditions: for Solubility in TPGS / Solubility in Vitamin E USP/NF: 65 °C; for Solubility in Tween 80 NF: 65 → Room Temp.; for Solubility in Acetonitrile / Solubility in Captex 300 EP / Solubility in Chloroform / Solubility in DMSO / Solubility in Ethanol Denatured / Solubility in Glycerin USP/EP/BP/JP / Solubility in Methanol / Solubility in Methylene dichloride / Solubility in PEG-400 NF / Solubility in Propylene Glycol, USP / Solubility in Soybean Oil USP: Room Temp.
Protocol: Compounds were dissolved in each solvent under constant stirring and temperature to saturation. The resulting solutions were centrifuged and the supernatant was analyzed by high performance liquid chromatography (HPLC).

[15] = Pharmacokinetics following intravenous administration in rats; format: in vivo, Sprague-Dawley rats; conditions: for Clearance / MRT / t1/2 (elimination): Sprague-Dawley rats, bolus intravenous, emulsion, approximately 14 mg/kg, plasma; for Plasma elimination half-life, times longer than the commercially available analogs: rats, intravenous
Protocol: Blood samples were collected for up to 120 hours post dose via the jugular vein. […] A noncompartmental analysis was carried out using WinNonlin (v 4.1).
The term “elimination rate constant” refers to the fraction of drug eliminated per unit of time. With first-order elimination, the rate of elimination is directly proportional to the serum drug concentration. There is a linear relationship between rate of elimination and serum drug concentration. Although the amount of drug eliminated in a first-order process changes with concentration, the fraction of a drug eliminated remains constant.
The term “clearance” refers to a measure of the body's ability to eliminate drug and is a hypothetical volume of distribution of drug which is cleared per unit time (i.e., mL/min) by any pathway of drug removal. […] The term “volume of distribution” refers to a calculated volume of body fluid that would be required to dissolve the total amount of drug at the same concentration as that found in the blood. It is a proportionality constant relating the amount of drug in the body to the measured concentration in biological fluid (blood, plasma, serum).

[16] = In vitro stability of the lactone form in presence of human serum albumin; format: in vitro ADME; conditions: saline buffered solution 10 mM pH 7.4, 4% human serum albumin, 37° C.; tested as SN2300 / SN2310 emulsion; FIG. 12
Source text: High performance liquid chromatography with fluorescence detection was used to analyze the decrease in the concentration of the lactone form over time.

CC[C@@]1(O)C(=O)OCc2c1cc1n(c2=O)Cc2cc3ccccc3nc2-1 [Camptothecin]
GI50 (OVCAR-3 (ovarian) [1]): 0.16 µM | GI50 [2]: 0.016 µM | GI50 (HT-29 (colorectal) [3]): 0.126 µM | GI50 (HCT-116 (colorectal) [4]): 0.04 µM | GI50 (MCF-7 (breast) [5]): 0.013 µM | GI50 (HCT-15 (colorectal) [6]): 0.16 µM | Clearance [7]: 147 mL/min/kg | t1/2 (elimination) [7]: 1.7 h

CC[C@@]1(O)C(=O)OCc2c1cc1n(c2=O)Cc2cc3cc(O)ccc3nc2-1 [Example 10-HO-CPT, 10-hydroxycamptothecin]
GI50 (OVCAR-3 (ovarian) [1]): 0.062 µM | GI50 [2]: 0.011 µM | GI50 (HT-29 (colorectal) [3]): 0.112 µM | GI50 (HCT-116 (colorectal) [4]): 0.027 µM | GI50 (MCF-7 (breast) [5]): 0.01 µM | GI50 (HCT-15 (colorectal) [6]): 0.356 µM

CCc1c2c(nc3ccc(OC(=O)N4CCC(N5CCCCC5)CC4)cc13)-c1cc3c(c(=O)n1C2)COC(=O)[C@]3(O)CC [Irinotecan, irinotecan hydrochloride]
GI50 [2]: 5.01 µM | GI50 (HT-29 (colorectal) [3]): 12.6 µM | GI50 (HCT-116 (colorectal) [4]): 7.9 µM | GI50 (MCF-7 (breast) [5]): 3.98 µM | MRT [7]: 1.43 h | Number of animals with no measurable tumor on Day 55 (HT-29 human tumor cells; q1dx5 (2 weeks)): 0/10 | Tumor Growth Delay (T − C) (HT-29 human tumor cells; q1dx5 (2 weeks)): 14 days | Tumor Growth Inhibition (% T/C) (HT-29 human tumor cells; q1dx5 (2 weeks)): 52 % T/C | Median tumor size (HT-29 human tumor cells; q1dx5): 1637 mm^3

CCc1c2c(nc3ccc(O)cc13)-c1cc3c(c(=O)n1C2)COC(=O)[C@]3(O)CC [SN38, 7-ethyl-10-hydroxycamptothecin]
GI50 (OVCAR-3 (ovarian) [1]): 0.0029 µM | GI50 [2]: 0.0014 µM | GI50 (HT-29 (colorectal) [3]): 0.001 µM | GI50 (HCT-116 (colorectal) [4]): 0.021 µM | GI50 (HCT-15 (colorectal) [6]): 0.0079 µM

CC[C@@]1(OC(=O)CCC(=O)Oc2c(C)c(C)c3c(c2C)CC[C@@](C)(CCC[C@H](C)CCC[C@H](C)CCCC(C)C)O3)C(=O)OCc2c1cc1n(c2=O)Cc2cc3ccccc3nc2-1 [SN2300]
GI50 (MCF-7 (breast) [8]): 0.325 µM | GI50 (HCT-116 (colorectal) [9]): 0.449 µM | GI50 (HCT-15 (colorectal) [10]): 20 µM | GI50 column, result in words (Poor activity) (OVCAR-3 (ovarian) [11]): Poor | GI50 [12]: 0.043 µM | GI50 (HT-29 (colorectal) [13]): 0.434 µM | Solubility in TPGS [14]: >133.3 mg/g | Solubility in Vitamin E USP/NF [14]: >288.3 mg/g | Solubility in Tween 80 NF [14]: 48.3 mg/g | Solubility in Acetonitrile [14]: 49.6 mg/g | Solubility in Captex 300 EP [14]: 96.7 mg/g | Solubility in Chloroform [14]: >372.5 mg/g | Solubility in DMSO [14]: >255.5 mg/g | Solubility in Ethanol Denatured [14]: 57.1 mg/g | Solubility in Glycerin USP/EP/BP/JP [14]: 2.541 mg/g | Solubility in Methanol [14]: 14.4 mg/g | Solubility in Methylene dichloride [14]: >336.5 mg/g | Solubility in PEG-400 NF [14]: 17.5 mg/g | Solubility in Propylene Glycol, USP [14]: 0.4633 mg/g | Solubility in Soybean Oil USP [14]: 45.2 mg/g | Clearance [15]: 0.135 mL/min/kg | MRT [15]: 9.40 h | t1/2 (elimination) [15]: 29.08 h | Plasma elimination half-life, times longer than the commercially available analogs [15]: approximately 30 times | Stability of the lactone form over time [16]: greater than that of camptothecin | Number of animals with no measurable tumor on Day 55 (HT-29 human tumor cells; q1dx5 (2 weeks)): 0/10 | Tumor Growth Delay (T − C) (HT-29 human tumor cells; q1dx5 (2 weeks)): 8.5 days | Tumor Growth Inhibition (% T/C) (HT-29 human tumor cells; q1dx5 (2 weeks)): 79 % T/C | Number of animals with no measurable tumor on Day 55 (HT-29 human tumor cells; q3dx10): 0/10 | Tumor Growth Delay (T − C) (HT-29 human tumor cells; q3dx10): 0 days | Tumor Growth Inhibition (% T/C) (HT-29 human tumor cells; q3dx10): 102 % T/C

CCc1c2c(nc3ccc(OC(=O)CCC(=O)Oc4c(C)c(C)c5c(c4C)CC[C@@](C)(CCC[C@H](C)CCC[C@H](C)CCCC(C)C)O5)cc13)-c1cc3c(c(=O)n1C2)COC(=O)[C@]3(O)CC [SN2310]
GI50 (HCT-116 (colorectal) [9]): 0.119 µM | GI50 (HCT-15 (colorectal) [10]): 0.099 µM | GI50 (OVCAR-3 (ovarian) [11]): 0.083 µM | GI50 [12]: 0.004 µM | GI50 (HT-29 (colorectal) [13]): 0.091 µM | Solubility in TPGS [14]: 27.6 mg/g | Solubility in Vitamin E USP/NF [14]: 398.2 mg/g | Solubility in Tween 80 NF [14]: 2.7 mg/g | Solubility in Acetonitrile [14]: 3.1 mg/g | Solubility in Captex 300 EP [14]: 4.4 mg/g | Solubility in Chloroform [14]: >97.0 mg/g | Solubility in DMSO [14]: 30.5 mg/g | Solubility in Ethanol Denatured [14]: 4.2 mg/g | Solubility in Glycerin USP/EP/BP/JP [14]: 2.8 mg/g | Solubility in Methanol [14]: 3.8 mg/g | Solubility in Methylene dichloride [14]: >99.7 mg/g | Solubility in PEG-400 NF [14]: 0.017 mg/g | Solubility in Propylene Glycol, USP [14]: 3.2 mg/g | Solubility in Soybean Oil USP [14]: 3.3 mg/g | Clearance [15]: 0.112 mL/min/kg | MRT [15]: 5.15 h | t1/2 (elimination) [15]: 3.49 h | Plasma elimination half-life, times longer than the commercially available analogs [15]: ~3 times | Stability of the lactone form over time [16]: greater than that of camptothecin | Number of animals with no measurable tumor on Day 55 (HT-29 human tumor cells; q1dx5 (2 weeks)): 4/10 | Tumor Growth Delay (T − C) (HT-29 human tumor cells; q1dx5 (2 weeks)): >28* days | Tumors that had still not reached maximum pre-determined size (HT-29 human tumor cells; q1dx5 (2 weeks)): *90% of tumors in this group had still not reached maximum pre-determined size. | Tumor Growth Inhibition (% T/C) (HT-29 human tumor cells; q1dx5 (2 weeks)): 4 % T/C | Number of animals with no measurable tumor on Day 55 (HT-29 human tumor cells; q3dx10): 8/10 | Tumor Growth Delay (T − C) (HT-29 human tumor cells; q3dx10): >28* days | Tumors that had still not reached maximum pre-determined size (HT-29 human tumor cells; q3dx10): *90% of tumors in this group had still not reached maximum pre-determined size. | Tumor Growth Inhibition (% T/C) (HT-29 human tumor cells; q3dx10): 2 % T/C | Median tumor size (HT-29 human tumor cells; q1dx5): 126 mm^3 | Mice with no measurable tumor (HT-29 human tumor cells; q1dx5): 40% | Mice with no measurable tumor (HT-29 human tumor cells; q3dx10): 80%

CC[C@@]1(O)C(=O)OCc2c1cc1n(c2=O)Cc2cc3c(CN(C)C)c(O)ccc3nc2-1 [Topotecan, topotecan hydrochloride]
GI50 (OVCAR-3 (ovarian) [1]): 0.251 µM | GI50 [2]: 0.0199 µM | GI50 (HT-29 (colorectal) [3]): 0.125 µM | GI50 (HCT-116 (colorectal) [4]): 0.0398 µM | GI50 (MCF-7 (breast) [5]): 0.0158 µM | GI50 (HCT-15 (colorectal) [6]): 0.501 µM | Clearance [7]: 53.7 mL/min/kg | t1/2 (elimination) [7]: 1.06 h
